Patent US11980648B2, “Compositions including ginsenoside 20(S)-Rg3 and methods of using ginsenoside 20(S)-Rg3 to inhibit alpha herpesvirus” (MIDDLE TENNESSEE STATE UNIVERSITY, priority 2020, dated 2024)
Marks after values point to notes of the source that are not given here.

Legend:
HSV-1 [1] = assay: Virus inhibition, HSV-1 on Vero cells (PrestoBlue); type: cell-based, herpes simplex virus type 1 (MacIntyre strain)
Method: (§1) Viruses and Quantification. Herpes simplex virus type 1 (HSV-1, MacIntyre strain, ATCC, VR-539) or herpes simplex virus type 2 (HSV-2, ATCC, VR-734) were used in these studies. Virus titer was determined by plaque assay. Briefly, following 2 hour-adsorption of various virus dilutions onto a Vero cell monolayer in a 24-well plate, the medium was removed and cells were overlaid with 1.5% carboxymethylcellulose (Sigma Chemical Company, St. Louis, Mo.) and incubated 48 hours at 37° C. with 5% CO2. After incubation, cells were fixed with methanol, stained with Giemsa (Sigma Chemical Company, St. Louis, Mo.) and plaques were counted. Each virus dilution was prepared in quadruplicate.
(§2) Cytotoxicity and Virus Inhibition. All ginsenosides, isomers, and protopanaxadiols were evaluated for toxic effects on Vero cells prior to anti-viral testing. Cells were seeded at 5000 cells/well in a black 96-well plate with clear bottom in a volume of 100 μL and allowed to attach for 24 hours. The P. ginseng compounds were prepared in DMSO at 100 μM and were taken through serial two-fold dilutions to determine the concentration when the rate of cell death was less than 10% compared to control, untreated cells. Each dilution was tested in three wells and all assays were repeated three times. Following a 48 hour-incubation at 37° C. in 5% CO2, 11 μL of PrestoBlue (Invitrogen, Carlsbad, Calif.) was added to each well and the plate was incubated for an additional 30 minutes. PrestoBlue determines cell viability by changing from blue to red as resazurin is reduced to resorufin by viable cells. Following the PrestoBlue incubation, fluorescence was determined by spectrophotometric reading using Soft Max Pro (Molecular Diagnostics, San Jose, Calif., USA).
(§3) For cytotoxicity testing, 4 μL of dilutions of the ginsenosides or protopanaxadiols were added to 396 μL of medium 199 and 100 μL of this mixture was added to each of three wells. For anti-viral testing, 4 μL of the non-toxic reagent and 4 μL of HSV-1 or HSV-2 diluted to an MOI of 0.1 were added to 392 μL of medium 199 and 100 μL of this mixture was added to each of three wells. Virus inhibition was determined by comparing the cell death of reagent-exposed cells with cell death of control cells only receiving virus. The 50% inhibitory concentration (IC50) was determined through a series of two-fold dilutions and calculation by linear regression analysis.

HSV-1 [2] = assay: Mouse susceptibility study, lethal HSV-1 infection; type: in vivo, BALB/c mice; details: for mortality: BALB/c mice, lethal dose HSV-1
Method: Mouse Susceptibility Study. BALB/c mice and the HSV-1, MacIntyre strain, ATCC VR-539, were used to determine the effectiveness of the 20(S)-Rg3 ginsenoside in preventing mortality in mice caused by infection of HSV-1. On day 1 of the study, four groups consisting of four mice each were injected intraperitoneally with 800,000 PFU of HSV-1, MacIntyre strain, ATCC VR-539. Three of the groups were treated daily with 1 mg/kg, 3 mg/kg, or 10 mg/kg intraperitoneal injections of the 20(S)-Rg3 ginsenoside and one group in the study received no treatment.

HSV-2 = assay: Virus inhibition, HSV-2 on Vero cells (PrestoBlue); type: cell-based, herpes simplex virus type 2
Method: as §1, §2, §3

Vero cells = assay: Cytotoxicity on Vero cells (PrestoBlue); type: cell-based; details: for Percent Cell Death: African green monkey, 48 h
Method: Cells. Vero cells (American Type Culture Collection (ATCC), Manassas, VA, CCL-81) were maintained in medium 199 (Sigma Chemical Company, St. Louis, MO) that was supplemented with 8% fetal bovine serum (Invitrogen, Carlsbad, CA), 1.25 μg/mL fungizone (Invitrogen, Carlsbad, CA) and penicillin-streptomycin, 1000 U/mL and 1 mg/mL respectively (Sigma Chemical Company, St. Louis, MO). Cells were passed weekly using 0.1% trypsin (Sigma Chemical Company, St. Louis, MO) to detach the cells from the flasks. Cell quantification was done by trypan blue exclusion.
as §2, with “The P. ginseng compounds were prepared in DMSO at 100 μM and were taken through serial two-fold dilutions to determine the concentration when the rate of cell death was less than 10% compared to control, untreated cells.” left out
as §3

HSV-1 [3] = assay: Time studies of HSV-1 inhibition (PrestoBlue); type: cell-based, herpes simplex virus type 1; details: Rg3 50 μM
Method: Time Studies. For virus inhibition studies described above, reagent 20(S)-Rg3 and virus were added to cells simultaneously. To evaluate the potential mode of action of Rg3, various combinations of valacyclovir, Rg3 and HSV-1 were tested at different time periods. The following combinations were evaluated at both one hour and four hours: • Virus applied to cells first (for one hour or four hours), followed by addition of valacyclovir, Rg3 or both valacyclovir and Rg3 to the cells; • Valacyclovir or Rg3 or both valacyclovir and Rg3 applied to cells first (for one or four hours), followed by virus; • Valacyclovir or Rg3 incubated together with virus first for one or four hours then added to cells.
All procedures described for evaluation of virus inhibition were followed in identical fashion as outlined for the PrestoBlue procedure except valacyclovir was used at a constant concentration of 16 μM and 20(S)-Rg3 at 50 μM.

normal WI 38 cells = details: 120 μM; cited from earlier work

CC(C)=CCC[C@](C)(O)C1CC[C@]2(C)C1[C@H](O)CC1[C@@]3(C)CC[C@H](O[C@@H]4OC(CO)[C@@H](O)[C@@H](O)C4O[C@@H]4OC(CO)[C@@H](O)[C@@H](O)C4O)C(C)(C)C3CC[C@]12C (stereo partly drawn) [20(S)-Rg3, 20(S)-ginsenoside-Rg3]
Percent Inhibition of HSV-1 (HSV-1 [1]; 50 μM, ± standard error): 82.3 ± 3.5%
Percent Inhibition of HSV-1 (HSV-1 [1]; 100 μM, ± standard error): nearly completely inhibited
inhibition at 25 µM (HSV-1 [1]; Human alphaherpesvirus 1, Vero, 25 μM, ± standard error, read-out: Percent Inhibition of HSV-1): 11 ± 2.6%
inhibition at 50 µM (HSV-1 [1]; Human alphaherpesvirus 1, Vero, 50 μM, ± standard error, read-out: Percent Inhibition of HSV-1): 80%
inhibition at 100 µM (HSV-1 [1]; Human alphaherpesvirus 1, Vero, 100 μM, ± standard error, read-out: Percent Inhibition of HSV-1): 90.3 ± 9.9%
IC50 (HSV-1 [1]; Human alphaherpesvirus 1, Vero, two-fold dilutions, linear regression, read-out: IC50 against HSV-1): ~35 µM
mortality (HSV-1 [2]; 1 mg/kg daily intraperitoneal): 0%
mortality (HSV-1 [2]; 3 mg/kg daily intraperitoneal): 0%
mortality (HSV-1 [2]; 10 mg/kg daily intraperitoneal): 0%
signs of stress (HSV-1 [2]; daily 1 mg/kg, 3 mg/kg or 10 mg/kg groups, duration of the study): never showed any signs of stress
Percent Inhibition of HSV-2 (HSV-2; 50 μM, ± standard error): 81.7 ± 10.3%
Percent Inhibition of HSV-2 (HSV-2; 100 μM, ± standard error): nearly completely inhibited
inhibition at 25 µM (HSV-2; Human alphaherpesvirus 2, Vero, 25 μM, ± standard error, read-out: Percent Inhibition of HSV-2): 14.3 ± 3.3%
inhibition at 50 µM (HSV-2; Human alphaherpesvirus 2, Vero, 50 μM, ± standard error, read-out: Percent Inhibition of HSV-2): 80%
inhibition at 100 µM (HSV-2; Human alphaherpesvirus 2, Vero, 100 μM, ± standard error, read-out: Percent Inhibition of HSV-2): 115 ± 6.7%
IC50 (HSV-2; Human alphaherpesvirus 2, Vero, two-fold dilutions, linear regression, read-out: IC50 against HSV-2): ~35 µM
Percent Cell Death (Vero cells; 50 μM): (13.0 ± 3.1) %
Percent Cell Death (Vero cells; 100 μM): (14.3 ± 4.5) %
Percent Cell Death (Vero cells; 125 μM): (22.3 ± 1.8) %
Percent Cell Death (Vero cells; 250 μM): (28.7 ± 1.4) ^1) %
IC50 (Vero cells; Chlorocebus sabaeus, Vero, read-out: IC50 against the host Vero cells (toxicity)): ~400 µM
Percent Inhibition of HSV-1 (HSV-1 [3]; HSV-1 incubated with compound(s) 4 hours prior to addition to cells, valacyclovir 16 μM): over 110%
Percent Inhibition of HSV-1 (HSV-1 [3]; HSV-1 incubated with compound(s) 4 hours prior to addition to cells, valacyclovir 16 μM, listed as Rg3): 113.7±14.8%
Percent Inhibition of HSV-1 (HSV-1 [3]; cells pretreated with compound 4 hours prior to HSV-1 addition): 90.1±11.1%
Percent Inhibition of HSV-1 (HSV-1 [3]; virus present on cells 4 hours prior to compound addition): 50.7±4.4%
effect on normal WI 38 cells (normal WI 38 cells): no effect
